Patent US8188098B2, “GPR119 receptor agonists” (Hoffmann-La Roche Inc., priority 2008, dated 2012)
Where a name gives a salt, the structure may show the parent alone.

Each molecule was assayed against T1, GPR119 receptor (Mesocricetus auratus, UniProt A0A1U8CD06) (assay: cAMP assay in HIT-T15 hamster pancreatic islet cells (functional agonist activity)). Settings: HIT-T15 cells endogenously expressing GPR119; 30 min at 25° C.; intracellular cAMP.
T1 construct: which endogenously express the GPR119 receptor; host or cells: HIT-T15 hamster pancreatic islet cells
T1 sequence (A0A1U8CD06 1-334): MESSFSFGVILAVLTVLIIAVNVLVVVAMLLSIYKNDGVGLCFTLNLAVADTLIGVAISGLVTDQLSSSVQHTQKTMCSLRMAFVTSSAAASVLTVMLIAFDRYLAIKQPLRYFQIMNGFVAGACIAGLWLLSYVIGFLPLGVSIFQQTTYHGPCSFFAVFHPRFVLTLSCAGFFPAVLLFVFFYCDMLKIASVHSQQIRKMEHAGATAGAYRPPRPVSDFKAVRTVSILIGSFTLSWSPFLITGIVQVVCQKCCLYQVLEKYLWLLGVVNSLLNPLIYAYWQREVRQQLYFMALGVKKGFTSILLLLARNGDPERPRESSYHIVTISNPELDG
Format: cell-based
Protocol: The functional agonist activities of compounds of the invention were characterized using a cAMP assay in HIT-T15 hamster pancreatic islet cells (American Type Culture Collection, Manassas, Va., USA) which endogenously express the GPR119 receptor. The cells were cultured in Kaighn's modification of Ham's F12 medium (Invitrogen Corporation, Carlsbad, Calif., USA) containing 10% horse serum, 2.5% FBS, and 1% Pen/Strep and grown in 225 cm^2 tissue culture flasks until they reached 75-85% confluence.
The cells were harvested 24 h prior to assay with 5 ml Versene®, washed with Kaighn/F12 medium and then plated into white 384-well plates (9000 cells/well) containing Kaighn/F12 medium. Prior to assay, the culture medium was replaced with a Kaighn/F12 medium without phenol red (50 μL/well) containing 0.5 mM 3-isobutyl-1-methylxanthine, 0.5 mg/ml BSA. The cells were incubated in the dark for 30 min at 25° C. in the absence or presence of varying concentrations of agonist (1 μL, 100% DMSO). The incubation media was discarded and replaced with the assay lysis buffer (50 μL/well) provided in the Tropix cAMP-Screen® kit (Applied Biosystems, Foster City, Calif., USA) and the plates incubated for 45 min at 37° C. The intracellular levels of cAMP generated in the HIT-T 15 cells were measured using the Tropix kit. In brief, 20 μL of the lysate was transferred into pre-coated antibody plates (384-well; Tropix kit) along with 10 μL of alkaline phosphatase conjugate and 20 μL of anti-cAMP antibody and the plates were incubated for 1 h at room temperature while shaking. The plates were then washed 5 times with wash buffer (70 μL) and tapped dry. CSPD®/Sapphire-II™ RTU substrate/enhancer solution (Applied Biosystems, Foster City, Calif., USA; 30 μL) was added and the plates were incubated for 45 min at room temperature while shaking. The signal generated was measured using a Wallac Victor V Luminometer (PerkinElmer Life And Analytical Sciences, Inc., Waltham, Mass., USA; 1 sec/well). EC50 values were calculated using the XLFit program (ID Business Solutions Ltd., Guildford, Surrey, UK).

Row | Compound | EC50 [µM]
1 | Cc1ncccc1Oc1ncnc2c1cnn2C1CCN(C(=O)Oc2ccccc2)CC1 [Example 122, 4-[4-(2-Methyl-pyridin-3-yloxy)-pyrazolo[3,4-d]pyrimidin-1-yl]-piperidine-1-carboxylic acid phenyl ester] | 1.1
2 | CC(C)(C)OC(=O)N1CCC(n2ncc3c(Oc4c(C#N)ccc(F)c4F)ncnc32)CC1 [Example 49, 4-[4-(6-Cyano-2,3-difluoro-phenoxy)-pyrazolo[3,4-d]pyrimidin-1-yl]-piperidine-1-carboxylic acid tert-butyl ester] | 0.048
3 | Cc1ncccc1Oc1ncnc2c1cnn2C1CCN(C(=O)OC(C)C)CC1 [Example 27, 4-[4-(2-Methyl-pyridin-3-yloxy)-pyrazolo[3,4-d]pyrimidin-1-yl]-piperidine-1-carboxylic acid isopropyl ester] | 0.85
4 | Cc1nc(-n2cncn2)ccc1Oc1ncnc2c1cnn2C1CCN(C(=O)OC(C)(C)C)CC1 [Example 101, 4-[4-(2-Methyl-6-[1,2,4]triazol-1-yl-pyridin-3-yloxy)-pyrazolo[3,4-d]pyrimidin-1-yl]-piperidine-1-carboxylic acid tert-butyl ester] | 0.36
5 | CC(C)OC(=O)N1CCC(n2ncc3c(Oc4ccc(S(C)(=O)=O)c(F)c4)ncnc32)CC1 [Example 24, 4-[4-(3-Fluoro-4-methanesulfonyl-phenoxy)-pyrazolo[3,4-d]pyrimidin-1-yl]-piperidine-1-carboxylic acid isopropyl ester] | 0.098
6 | CC(C)(C)OC(=O)N1CCC(n2ncc3c(Oc4ccc(Cl)c(C(F)(F)F)c4)ncnc32)CC1 [Example 55, 4-[4-(4-Chloro-3-trifluoromethyl-phenoxy)-pyrazolo[3,4-d]pyrimidin-1-yl]-piperidine-1-carboxylic acid tert-butyl ester] | 0.15
7 | CC(C)(C)OC(=O)N1CCC(n2ncc3c(Oc4ccc5sccc5c4)ncnc32)CC1 [Example 77, 4-[4-(Benzo[b]thiophen-5-yloxy)-pyrazolo[3,4-d]pyrimidin-1-yl]-piperidine-1-carboxylic acid tert-butyl ester] | 0.99
8 | CC(C)(C)OC(=O)N1CCC(n2ncc3c(Oc4cccnc4C#N)ncnc32)CC1 [Example 99, 4-[4-(2-Cyano-pyridin-3-yloxy)-pyrazolo[3,4-d]pyrimidin-1-yl]-piperidine-1-carboxylic acid tert-butyl ester] | 0.2
9 | Cc1ncccc1Oc1ncnc2c1cnn2C1CCN(C(=O)OC(C)C)CC1 [Example 28, 4-[4-(2-Methyl-pyridin-3-yloxy)-pyrazolo[3,4-d]pyrimidin-1-yl]-piperidine-1-carboxylic acid isopropyl ester hydrochloride salt] | 0.82
10 | Cc1ncccc1Oc1ncnc2c1cnn2C1CCN(C(=O)OC2CCCC2)CC1 [Example 121, 4-[4-(2-Methyl-pyridin-3-yloxy)-pyrazolo[3,4-d]pyrimidin-1-yl]-piperidine-1-carboxylic acid cyclopentyl ester] | 0.26
11 | CC(C)(C)OC(=O)N1CCC(n2ncc3c(Oc4ccc(-n5cncn5)cc4)ncnc32)CC1 [Example 80, 4-[4-(4-[1,2,4]Triazol-1-yl-phenoxy)-pyrazolo[3,4-d]pyrimidin-1-yl]-piperidine-1-carboxylic acid tert-butyl ester] | 0.046
12 | CC(C)(OC(=O)N1CCC(n2ncc3c(Oc4ccc(S(C)(=O)=O)cc4)ncnc32)CC1)C(F)(F)F [Example 111, 4-[4-(4-Methanesulfonyl-phenoxy)-pyrazolo[3,4-d]pyrimidin-1-yl]-piperidine-1-carboxylic acid 2,2,2-trifluoro-1,1-dimethyl-ethyl ester] | 0.05
13 | Cc1nc(-n2cncn2)ccc1Nc1ncnc2c1cnn2C1CCN(C(=O)OC(C)(C)C)CC1 [Example 9, 4-[4-(2-Methyl-6-[1,2,4]triazol-1-yl-pyridin-3-ylamino)-pyrazolo[3,4-d]pyrimidin-1-yl]-piperidine-1-carboxylic acid tert-butyl ester] | 2.4
14 | CC(C)OC(=O)N1CCC(n2ncc3c(Oc4ccc(=O)n(C)n4)ncnc32)CC1 [Example 31, 4-[4-(1-Methyl-6-oxo-1,6-dihydro-pyridazin-3-yloxy)-pyrazolo[3,4-d]pyrimidin-1-yl]-piperidine-1-carboxylic acid isopropyl ester] | 3.5
15 | CC(C)(C)OC(=O)N1CCC(n2ncc3c(Oc4cccc5ncccc45)ncnc32)CC1 [Example 71, 4-[4-(Quinolin-5-yloxy)-pyrazolo[3,4-d]pyrimidin-1-yl]-piperidine-1-carboxylic acid tert-butyl ester] | 0.75
16 | Cc1nc(-c2ccc(Oc3ncnc4c3cnn4C3CCN(C(=O)OC(C)(C)C)CC3)cc2)no1 [Example 85, 4-{4-[4-(5-Methyl-[1,2,4]oxadiazol-3-yl)-phenoxy]-pyrazolo[3,4-d]pyrimidin-1-yl}-piperidine-1-carboxylic acid tert-butyl ester] | 0.55
17 | CC(C)(C)OC(=O)N1CCCC(n2ncc3c(Oc4ccc(S(C)(=O)=O)cc4)ncnc32)C1 (single isomer, unassigned) [Example 89] | 0.21
18 | CC(C)OC(=O)N1CCC(n2ncc3c(Oc4cc(F)c(F)cc4F)ncnc32)CC1 [Example 16, 4-[4-(2,4,5-Trifluoro-phenoxy)-pyrazolo[3,4-d]pyrimidin-1-yl]-piperidine-1-carboxylic acid isopropyl ester] | 0.21
19 | CS(=O)(=O)c1ccc(Nc2ncnc3c2cnn3C2CCN(Cc3ccccc3)CC2)c(F)c1 [Example 11, [1-(1-Benzyl-piperidin-4-yl)-1H-pyrazolo[3,4-d]pyrimidin-4-yl]-(2-fluoro-4-methanesulfonylphenyl)-amine] | 2.5

Now from value to molecule:

Row | EC50 [µM] | Compound
20 | 0.99 | CC(C)C(=O)N1CCC(n2ncc3c(Oc4ccc(S(C)(=O)=O)cc4)ncnc32)CC1 [Example 136, 1-{4-[4-(4-Methanesulfonyl-phenoxy)-pyrazolo[3,4-d]pyrimidin-1-yl]-piperidin-1-yl}-2-methyl-propan-1-one]
21 | 0.43 | CC(C)c1noc(N2CCC(n3ncc4c(Oc5ccc(S(C)(=O)=O)cc5)ncnc43)CC2)n1 [Example 126, 1-[1-(3-Isopropyl-[1,2,4]oxadiazol-5-yl)-piperidin-4-yl]-4-(4-methanesulfonyl-phenoxy)-1H-pyrazolo[3,4-d]pyrimidine]
22 | 0.33 | CC(C)CC(=O)N1CCC(n2ncc3c(Oc4ccc(S(C)(=O)=O)cc4)ncnc32)CC1 [Example 142, 1-{4-[4-(4-Methanesulfonyl-phenoxy)-pyrazolo[3,4-d]pyrimidin-1-yl]-piperidin-1-yl}-3-methyl-butan-1-one]
23 | 0.39 | Cc1cc(C(=O)N2CCC(n3ncc4c(Oc5ccc(S(C)(=O)=O)cc5)ncnc43)CC2)nn1C [Example 152, (1,5-Dimethyl-1H-pyrazol-3-yl)-{4-[4-(4-methanesulfonyl-phenoxy)-pyrazolo[3,4-d]pyrimidin-1-yl]-piperidin-1-yl}-methanone]
24 | 0.24 | Cc1ncccc1Oc1ncnc2c1cnn2C1CCN(C(=O)OCc2ccccc2)CC1 [Example 124, 4-[4-(2-Methyl-pyridin-3-yloxy)-pyrazolo[3,4-d]pyrimidin-1-yl]-piperidine-1-carboxylic acid benzyl ester]
25 | 0.39 | CC(C)c1noc(C2CCC(n3ncc4c(Oc5ccc(S(C)(=O)=O)cc5F)ncnc43)CC2)n1 (stereo not drawn) [Example 131, 4-(2-Fluoro-4-methanesulfonyl-phenoxy)-1-[4-(3-isopropyl-[1,2,4]oxadiazol-5-yl)-cyclohexyl]-1H-pyrazolo[3,4-d]pyrimidine]
26 | 2.1 | CS(=O)(=O)c1ccc(Oc2ncnc3c2cnn3C2CCN(C(=O)c3cc(Cl)cc(Cl)c3)CC2)cc1 [Example 150, (3,5-Dichloro-phenyl)-{4-[4-(4-methanesulfonyl-phenoxy)-pyrazolo[3,4-d]pyrimidin-1-yl]-piperidin-1-yl}-methanone]
27 | 0.75 | CS(=O)(=O)c1ccc(Oc2ncnc3c2cnn3C2CCN(C(=O)C3CCC3)CC2)cc1 [Example 140, Cyclobutyl-{4-[4-(4-methanesulfonyl-phenoxy)-pyrazolo[3,4-d]pyrimidin-1-yl]-piperidin-1-yl}-methanone]
